Article PMC4589404, “Entamoeba histolytica Dmc1 Catalyzes Homologous DNA Pairing and Strand Exchange That Is Stimulated by Calcium and Hop2-Mnd1” (PLoS ONE, 2015)

Key:
ehDmc1 = molecular target: T1, ehDmc1 (Entamoeba histolytica, UniProt C4LTR6); test: D-loop assay with purified protein (IC50); also ssDNA EMSA, nuclease protection and ATPase assays; format: biochemical
T1 construct: gene EHI_050430; 334 amino acid protein with N-terminal six-histidine tag
T1 sequence (C4LTR6 1-347): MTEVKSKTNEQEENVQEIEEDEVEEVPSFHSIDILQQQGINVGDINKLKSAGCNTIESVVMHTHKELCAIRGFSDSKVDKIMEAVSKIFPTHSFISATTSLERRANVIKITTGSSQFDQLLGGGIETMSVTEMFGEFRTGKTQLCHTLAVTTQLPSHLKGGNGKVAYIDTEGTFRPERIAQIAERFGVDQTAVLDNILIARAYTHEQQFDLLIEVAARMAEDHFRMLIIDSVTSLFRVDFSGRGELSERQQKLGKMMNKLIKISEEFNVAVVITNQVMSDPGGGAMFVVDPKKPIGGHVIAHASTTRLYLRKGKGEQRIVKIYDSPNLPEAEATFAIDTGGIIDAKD

[1] = substrate: Nc1ncnc2c1ncn2[C@@H]1O[C@H](COP(=O)(O)OP(=O)(O)OP(=O)(O)O)[C@@H](O)[C@H]1O; test: Michaelis-Menten ATP hydrolysis assay (TLC), purified protein; Km; format: biochemical, Entamoeba histolytica; conditions: Mg2+

Row | Molecule | IC50 (ehDmc1) [µM] | Km [1] [µM]
1 | O=S(=O)(O)c1cc(N=C=S)ccc1C=Cc1ccc(N=C=S)cc1S(=O)(=O)O [DIDS, 4,4′-diisothiocyanostilbene-2,2′-disulfonic acid] | 4.5 ± 0.23 | 
2 | ehDmc1 (Entamoeba histolytica HM-1:IMSS) (protein, 334 amino acid protein with N-terminal six-histidine tag) MTEVKSKTNEQEENVQEIEEDEVEEVPSFHSIDILQQQGINVGDINKLKSAGCNTIESVVMHTHKELCAIRGFSDSKVDKIMEAVSKIFPTHSFISATTSLERRANVIKITTGSSQFDQLLGGGIETMSVTEMFGEFRTGKTQLCHTLAVTTQLPSHLKGGNGKVAYIDTEGTFRPERIAQIAERFGVDQTAVLDNILIARAYTHEQQFDLLIEVAARMAEDHFRMLIIDSVTSLFRVDFSGRGELSERQQKLGKMMNKLIKISEEFNVAVVITNQVMSDPGGGAMFVVDPKKPIGGHVIAHASTTRLYLRKGKGEQRIVKIYDSPNLPEAEATFAIDTGGIIDAKD |  | 480 ± 50
